What was measured:
[1] = molecular target: T1, Adenosine receptor A1 (Homo sapiens, UniProt P30542); assay: Displacement of [3H]CCPA from human adenosine A1 receptor expressed in CHO cells; format: cell-based
T1 sequence (P30542 whole entry): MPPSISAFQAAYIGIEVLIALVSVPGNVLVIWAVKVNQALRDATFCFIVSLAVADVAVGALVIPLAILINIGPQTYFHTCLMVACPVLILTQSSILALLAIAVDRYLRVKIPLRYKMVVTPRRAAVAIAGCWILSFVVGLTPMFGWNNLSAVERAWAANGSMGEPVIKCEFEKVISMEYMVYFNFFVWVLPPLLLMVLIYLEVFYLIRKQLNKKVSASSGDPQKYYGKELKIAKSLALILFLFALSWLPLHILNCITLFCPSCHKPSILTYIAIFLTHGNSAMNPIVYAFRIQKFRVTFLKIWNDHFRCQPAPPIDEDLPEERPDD

[2] = molecular target: T2, Adenosine receptor A2a (Homo sapiens, UniProt P29274); assay: Displacement of [3H]NECA from human adenosine A2A receptor expressed in CHO cells; format: cell-based
T2 sequence (P29274 whole entry): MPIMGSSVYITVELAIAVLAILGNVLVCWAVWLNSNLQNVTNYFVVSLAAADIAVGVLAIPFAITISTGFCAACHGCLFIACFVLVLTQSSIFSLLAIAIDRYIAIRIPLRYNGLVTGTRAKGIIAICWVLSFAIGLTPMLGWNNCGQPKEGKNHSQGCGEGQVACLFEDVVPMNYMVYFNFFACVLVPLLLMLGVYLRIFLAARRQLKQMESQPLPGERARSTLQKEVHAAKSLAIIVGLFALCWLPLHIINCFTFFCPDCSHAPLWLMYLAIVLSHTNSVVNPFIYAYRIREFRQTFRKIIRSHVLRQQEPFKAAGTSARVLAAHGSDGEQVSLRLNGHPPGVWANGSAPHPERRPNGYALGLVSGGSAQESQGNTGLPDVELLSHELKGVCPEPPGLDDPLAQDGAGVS

[3] = molecular target: T3, Adenosine receptor A2b (Homo sapiens, UniProt P29275); assay: Antagonist activity at human adenosine A2B receptor expressed in CHO cells assessed as inhibition of NECA-stimulated adenylyl cyclase activity; format: functional, cell-based
T3 sequence (P29275 whole entry): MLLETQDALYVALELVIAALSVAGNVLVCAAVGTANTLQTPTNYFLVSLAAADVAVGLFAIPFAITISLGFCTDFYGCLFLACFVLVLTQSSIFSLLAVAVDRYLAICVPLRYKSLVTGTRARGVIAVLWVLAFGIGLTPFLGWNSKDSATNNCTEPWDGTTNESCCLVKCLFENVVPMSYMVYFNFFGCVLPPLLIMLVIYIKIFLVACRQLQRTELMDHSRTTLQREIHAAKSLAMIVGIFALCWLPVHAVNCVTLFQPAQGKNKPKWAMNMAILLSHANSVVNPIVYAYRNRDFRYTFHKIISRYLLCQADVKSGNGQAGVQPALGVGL

[4] = molecular target: T4, Adenosine receptor A3 (Homo sapiens, UniProt P0DMS8); assay: Displacement of [3H]HEMADO from human adenosine A3 receptor expressed in CHO cells; format: cell-based
T4 sequence (P0DMS8 whole entry, looked up): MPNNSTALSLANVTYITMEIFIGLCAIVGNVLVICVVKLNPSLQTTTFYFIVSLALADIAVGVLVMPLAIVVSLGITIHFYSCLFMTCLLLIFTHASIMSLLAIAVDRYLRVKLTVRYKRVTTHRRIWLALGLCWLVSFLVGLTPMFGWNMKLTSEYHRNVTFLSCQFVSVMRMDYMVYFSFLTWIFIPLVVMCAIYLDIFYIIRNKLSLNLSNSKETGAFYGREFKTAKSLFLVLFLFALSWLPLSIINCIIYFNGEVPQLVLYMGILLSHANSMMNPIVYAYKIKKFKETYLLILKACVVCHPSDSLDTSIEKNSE

[5] = molecular target: T1, Adenosine receptor A1; assay: Binding affinity to adenosine A1 receptor (unknown origin)
[6] = molecular target: T2, Adenosine receptor A2a; assay: Binding affinity to adenosine A2A receptor (unknown origin)
[7] = molecular target: T3, Adenosine receptor A2b; assay: Binding affinity to adenosine A2B receptor (unknown origin)
[8] = molecular target: T4, Adenosine receptor A3; assay: Binding affinity to adenosine A3 receptor (unknown origin)
[9] = species: Homo sapiens; assay: Selectivity ratio of Ki for adenosine A1 receptor (unknown origin) to Ki for adenosine A2A receptor (unknown origin)

Ki [1] [µM]	Ki [2] [µM]	Ki [3] [µM]	Ki [4] [µM]	Ki [5] [µM]	Ki [6] [µM]	Ki [7] [µM]	Ki [8] [µM]	Ratio Ki [9]	Structure (SMILES)
2.67	1.02	1.76	12.2						CCCn1c(Br)nc2c(NCCCc3ccccc3)ncnc21
				0.33	0.15	2.41	3.2		CCn1cnc2c(N)nc(NCCc3ccccc3)nc21
0.358	0.036	1.74	0.65						CCCn1c(Br)nc2c(N)nc(NCc3ccccc3)nc21
42.8	22.6	> 30	29.1						CCCn1cnc2c(NCc3ccccc3)ncnc21
2.33	0.738	9.25	5.88						CCCn1cnc2c(N)nc(NCCc3ccccc3)nc21
0.546	0.08	1.76	0.402						CCCn1c(-c2ccco2)nc2c(NCc3ccccc3)ncnc21
			> 100						CCCn1cnc2c(N)ncnc21
19.2	12	> 30	16.9						CCCn1cnc2c(NCCc3ccccc3)ncnc21
			> 100						CCCn1c(Br)nc2c(N)ncnc21
2.44	0.547	9.28	0.811						CCCn1c(-c2ccco2)nc2c(NCCc3ccccc3)ncnc21
1.94	0.503	3.19	2.52						CCCn1c(Br)nc2c(NCCc3ccccc3)ncnc21
0.373	0.027	1.49	1.16						CCCn1c(Br)nc2c(N)nc(NCCc3ccccc3)nc21
7.6	1.4	> 30	5.84						CCCn1cnc2c(N)nc(NCc3ccccc3)nc21
								6	CCn1c(-c2ccco2)nc2c(N)ncnc21
0.583	0.284	6.3	1.95						CCCn1c(Br)nc2c(N)nc(NCCCc3ccccc3)nc21
0.23	0.113	8.24	0.266						CCCn1c(-c2ccco2)nc2c(N)nc(NCCCc3ccccc3)nc21
0.378	0.181	1.87	0.959						CCCn1c(-c2ccco2)nc2c(NCCCc3ccccc3)ncnc21
0.08	0.014	2.03	0.056						CCCn1c(-c2ccco2)nc2c(N)nc(NCCc3ccccc3)nc21
3.64	9.11	> 30	12.6						CCCn1cnc2c(N)nc(NCCCc3ccccc3)nc21
5.62	1.18	7.49	11.1						CCCn1c(Br)nc2c(NCc3ccccc3)ncnc21
18.6	13	> 30	30						CCCn1cnc2c(NCCCc3ccccc3)ncnc21
0.138	0.0066	4.61	0.029						CCCn1c(-c2ccco2)nc2c(N)nc(NCc3ccccc3)nc21
				8.73	1.34	8.13	10.8		CCn1cnc2c(NCCc3ccccc3)ncnc21

Source: ChEMBL document CHEMBL3739359, “New substituted 9-propyladenine derivatives as A2Aadenosine receptor antagonists” (Medchemcomm, 2015)
